Like-named read-outs stand apart in the source and are kept apart here. Square brackets hold non-standard residues; d marks the D form. Peptide text beside a SMILES is read from it. N(4-F-Bzl)Gly = O=C(O)CNCc1ccc(F)cc1; Nspe = C[C@H](NCC(=O)O)c1ccccc1; NhArg = N=C(N)NCCCCNCC(=O)O; Nlys = NCCCCNCC(=O)O
Columns and labels:
Assay type in all cases: cell-based, human
[1] = test system: HepG2 cells; assay: Cytotoxicity assay with HepG2 (alamarBlue)
In short: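 HepG2 cells (2 × 10^4/well, seeded 1 day earlier) were exposed to compounds (2–100 μM dilution series, triplicate) for 1 h in reduced volume, then diluted with medium and incubated 24 h at 37 °C. Viability was read by alamarBlue after 2 h (Ex 560/Em 600 nm), and ED50 (dose killing 50% of cells) came from dose-response curves.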

[2] = Skin cell toxicity assay with HaCaT (alamarBlue); details: human, HaCaT cells (keratinocytes)
In short: (§1)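 HaCaT cells seeded at 2x10^4 per well 24 hours before 1-hour exposure to a 2–100 µM triplicate dilution series in DMEM high glucose with 10% FBS at 37 °C, 5% CO2. Viability assessed with alamarBlue; ED50 defined as dose killing 50% of cells, derived from dose-response data.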

[3] = test system: HaCaT cells; assay: Skin cell toxicity assay with HaCaT (alamarBlue)
In short: as §1

[4] = dose that kills 50% of cells, 2–100 μM, 1 h with compound then 24 h, alamarBlue
[5] = dose that kills 50% of cells, 2–100 μM, 1 h with compound then 24 h, alamarBlue, read-out: ED50 HaCaT
[6] = human, HaCaT cells (keratinocytes), 24 h

Row | Compound | ED50 HepG2 [1, 4] [µM] | CC50 at 24 h [2, 5] [µM] | ED50 HaCaT [3, 4] [µM] | CC50 at 24 h ([2]; ED50 HaCaT) [µM] | ED50 HaCaT [3, 6] [µM] | ED50 HepG2 [1] [µM] | ED50 HaCaT [3] [µM] | also measured
1 | C[C@@H](c1ccccc1)N(CC(N)=O)C(=O)CN(C(=O)CN(CCCCN)C(=O)CN(C(=O)CN(C(=O)CN(CCCCN)C(=O)CN(C(=O)CN(C(=O)CN(CCCCN)C(=O)CN(C(=O)CN(C(=O)CNCCCCN)[C@@H](C)c1ccccc1)[C@@H](C)c1ccccc1)[C@@H](C)c1ccccc1)[C@@H](C)c1ccccc1)[C@@H](C)c1ccccc1)[C@@H](C)c1ccccc1)[C@@H](C)c1ccccc1 [Peptoid 13, (NLysNspeNspe)4] (H-[Nlys][Nspe][Nspe][Nlys][Nspe][Nspe][Nlys][Nspe][Nspe][Nlys][Nspe][Nspe]-NH2) | 29 | 20 | 20 | – | – | – | – | –
2 | C[C@@H](c1ccccc1)N(CC(N)=O)C(=O)CN(C(=O)CN(CCCCN)C(=O)CN(C(=O)CN(C(=O)CN(CCCCN)C(=O)CN(C(=O)CN(C(=O)CNCCCCN)[C@@H](C)c1ccccc1)[C@@H](C)c1ccccc1)[C@@H](C)c1ccccc1)[C@@H](C)c1ccccc1)[C@@H](C)c1ccccc1 [Peptoid 14, (NLysNspeNspe)3] (H-[Nlys][Nspe][Nspe][Nlys][Nspe][Nspe][Nlys][Nspe][Nspe]-NH2) | >100 | 100 | >100 | – | – | – | – | –
3 | C[C@@H](c1ccccc1)N(CC(N)=O)C(=O)CN(C(=O)CN(CCCCN)C(=O)CN(C(=O)CN(C(=O)CNCCCCN)[C@@H](C)c1ccccc1)[C@@H](C)c1ccccc1)[C@@H](C)c1ccccc1 [Peptoid 15, (NLysNspeNspe)2] (H-[Nlys][Nspe][Nspe][Nlys][Nspe][Nspe]-NH2) | – | – | – | 100 | >100 | – | – | ED50 HepG2 ([1]; human, HepG2 cells, 24 h): >100 µM
4 | C[C@@H](c1ccccc1)N(CC(N)=O)C(=O)CN(C(=O)CN(CCN)C(=O)CN(C(=O)CN(C(=O)CN(CCN)C(=O)CN(C(=O)CN(C(=O)CNCCN)[C@@H](C)c1ccccc1)[C@@H](C)c1ccccc1)[C@@H](C)c1ccccc1)[C@@H](C)c1ccccc1)[C@@H](C)c1ccccc1 [Peptoid 17, (NaeNspeNspe)3] | >100 | 100 | >100 | – | – | – | – | –
5 | C[C@@H](c1ccccc1)N(CC(N)=O)C(=O)CN(C(=O)CN(CCN)C(=O)CN(C(=O)CN(C(=O)CNCCN)[C@@H](C)c1ccccc1)[C@@H](C)c1ccccc1)[C@@H](C)c1ccccc1 [Peptoid 18, (NaeNspeNspe)2] | – | – | – | 100 | >100 | – | – | ED50 HepG2 ([1]; human, HepG2 cells, 24 h): >100 µM
6 | NCCCCNCC(=O)N(CC(=O)N(CC(=O)N(CCCCN)CC(=O)N(CC(=O)N(CC(=O)N(CCCCN)CC(=O)N(CC(=O)N(CC(=O)N(CCCCN)CC(=O)N(CC(=O)N(CC(N)=O)Cc1ccc(F)cc1)Cc1ccc(F)cc1)Cc1ccc(F)cc1)Cc1ccc(F)cc1)Cc1ccc(F)cc1)Cc1ccc(F)cc1)Cc1ccc(F)cc1)Cc1ccc(F)cc1 [Peptoid 22, (NLysNpfbNpfb)4] (H-[Nlys][N(4-F-Bzl)Gly][N(4-F-Bzl)Gly][Nlys][N(4-F-Bzl)Gly][N(4-F-Bzl)Gly][Nlys][N(4-F-Bzl)Gly][N(4-F-Bzl)Gly][Nlys][N(4-F-Bzl)Gly][N(4-F-Bzl)Gly]-NH2) | – | – | – | 46 | – | 30 | 46 | –
7 | C[C@@H](c1ccccc1)N(CC(N)=O)C(=O)CN(C(=O)CN(CCCCN)C(=O)CN(Cc1ccc(F)cc1)C(=O)CN(Cc1ccc(F)cc1)C(=O)CN(CCCCN)C(=O)CN(C(=O)CN(C(=O)CN(CCCCN)C(=O)CN(Cc1ccc(F)cc1)C(=O)CN(Cc1ccc(F)cc1)C(=O)CNCCCCN)[C@@H](C)c1ccccc1)[C@@H](C)c1ccccc1)[C@@H](C)c1ccccc1 [Peptoid 28, [(NLysNpfbNpfb)(NLysNspeNspe)]2] | – | – | – | 100 | >100 | 55 | – | toxicity to HaCaT or HepG2 (in words) [3]: negligible toxicity
8 | CCCCCNCC(=O)N(CC(=O)N(CC(=O)N(CCCCC)CC(=O)N(CC(=O)N(CC(=O)N(CCCCN)CC(=O)N(CC(=O)N(CC(=O)N(CCCCN)CC(=O)N(CC(=O)N(CC(N)=O)[C@@H](C)c1ccccc1)[C@@H](C)c1ccccc1)[C@@H](C)c1ccccc1)[C@@H](C)c1ccccc1)[C@@H](C)c1ccccc1)[C@@H](C)c1ccccc1)[C@@H](C)c1ccccc1)[C@@H](C)c1ccccc1 [Peptoid 31, (NamyNspeNspe)2(NLysNspeNspe)2] | – | – | – | 20 | – | 18 | 20 | –
9 | C[C@@H](c1ccccc1)N(CC(N)=O)C(=O)CN(C(=O)CN(CCCCNC(=N)N)C(=O)CN(C(=O)CN(C(=O)CN(CCCCNC(=N)N)C(=O)CN(C(=O)CN(C(=O)CN(CCCCNC(=N)N)C(=O)CN(C(=O)CN(C(=O)CNCCCCNC(=N)N)[C@@H](C)c1ccccc1)[C@@H](C)c1ccccc1)[C@@H](C)c1ccccc1)[C@@H](C)c1ccccc1)[C@@H](C)c1ccccc1)[C@@H](C)c1ccccc1)[C@@H](C)c1ccccc1 [Peptoid 34, (NhArgNspeNspe)4] (H-[NhArg][Nspe][Nspe][NhArg][Nspe][Nspe][NhArg][Nspe][Nspe][NhArg][Nspe][Nspe]-NH2) | – | – | – | 11 | – | 12 | 20 | –
